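Protocol summary: plate cells (96-well), add compound at 5 concentrations, incubate 48 h, interpolate endpoints linearly. Here, GI50 denotes the concentration required for 50% inhibition of growth. TGI: total growth inhibition.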
Columns and labels:
Test in all cases: inhibition of tumour cell growth, NCI panel, 48 h
[1] = test system: T-47D breast
[2] = test system: ACHN renal
[3] = test system: SK-MEL-28 melanoma
[4] = test system: SR leukemia
[5] = test system: MDA-MB-231 breast
[6] = test system: M14 melanoma
[7] = test system: IGROV1 ovarian
[8] = test system: NCI/ADR-RES ovarian
[9] = test system: BT-549 breast
[10] = test system: HT29 colon
[11] = test system: SK-MEL-5 melanoma
[12] = test system: MALME-3M melanoma
[13] = test system: NCI-H23 lung
[14] = test system: 786-0 renal
[15] = test system: LOX IMVI melanoma
[16] = test system: HS 578T breast
[17] = test system: RXF 393 renal
[18] = test system: SNB-19 CNS
[19] = test system: HOP-62 NSCLC
[20] = test system: UACC-257 melanoma
[21] = test system: MCF7 breast
[22] = test system: K-562 leukemia
[23] = test system: UO-31 renal
[24] = test system: CAKI-1 renal
[25] = test system: HCC-2998 colon
[26] = test system: A498 renal
[27] = test system: NCI-H226 lung
[28] = test system: NCI-H460 lung
[29] = test system: SK-MEL-2 melanoma
[30] = test system: SF-539 CNS
[31] = test system: DU-145 prostate
[32] = test system: HCT-116 colon
[33] = test system: SN12C renal
[34] = test system: HL-60(TB) leukemia
[35] = test system: KM12 colon
[36] = test system: HCT-15 colon
[37] = test system: OVCAR-8 ovarian
[38] = test system: HOP-92 NSCLC
[39] = test system: U251 CNS
[40] = test system: UACC-62 melanoma
[41] = test system: OVCAR-5 ovarian
[42] = test system: SF-268 CNS
[43] = test system: MOLT-4 leukemia
[44] = test system: SNB-75 CNS
[45] = test system: OVCAR-4 ovarian
[46] = test system: EKVX NSCLC
[47] = test system: MDA-MB-435
[48] = test system: TK-10 renal
[49] = test system: RPMI-8226 leukemia
[50] = test system: COLO 205 colon
[51] = test system: CCRF-CEM leukemia
[52] = test system: PC-3 prostate
[53] = test system: SW-620 colon
[54] = test system: NCI-H522 lung
[55] = test system: A549 NSCLC
[56] = test system: OVCAR-3 ovarian
[57] = test system: SF-295 CNS
[58] = test system: SK-OV-3 ovarian

Work on COc1ccc2c(c1)C(=O)c1c-2n(CCCN=[N+]=[N-])c(=O)c2ccccc12 yielded a GI50 [1] of 25.9 µM, a TGI [1] of over 100 µM and a GI50 [2] of 28.7 µM. It also gave a TGI [2] of over 100 µM, a GI50 [3] of over 100 µM and a TGI [3] of over 100 µM. The GI50 [4] was 5.7 µM, the TGI [4] was over 100 µM and the GI50 [5] was over 100 µM. For the same molecule, the TGI [5] was over 100 µM, the GI50 [6] was 75.1 µM and the TGI [6] was over 100 µM. The GI50 [7] was 32.8 µM, the TGI [7] was over 100 µM and the GI50 [8] was 91.2 µM. The TGI [8] was over 100 µM, the GI50 [9] was 89.9 µM and the TGI [9] was over 100 µM. The GI50 [10] was 41.4 µM, the TGI [10] was over 100 µM and the GI50 [11] was 14.6 µM. It also gave a TGI [11] of over 100 µM, a GI50 [12] of over 100 µM and a TGI [12] of over 100 µM. The GI50 [13] was 50.4 µM, the TGI [13] was over 100 µM and the GI50 [14] was 27.9 µM. The TGI [14] was over 100 µM, the GI50 [15] was 27.9 µM and the TGI [15] was over 100 µM. For the same molecule, the GI50 [16] was 62.4 µM, the TGI [16] was over 100 µM and the GI50 [17] was 89.8 µM. The TGI [17] was over 100 µM, the GI50 [18] was 17.6 µM and the TGI [18] was over 100 µM. It also gave a GI50 [19] of 34.2 µM, a TGI [19] of over 100 µM and a GI50 [20] of over 100 µM. The TGI [20] was over 100 µM, the GI50 [21] was 1.5 µM and the TGI [21] was over 100 µM. For the same molecule, the GI50 [22] was 26 µM, the TGI [22] was over 100 µM and the GI50 [23] was 43.4 µM. It also gave a TGI [23] of over 100 µM, a GI50 [24] of 49.7 µM and a TGI [24] of over 100 µM. For the same molecule, the GI50 [25] was 61.9 µM, the TGI [25] was over 100 µM and the GI50 [26] was 21.1 µM. The TGI [26] was 69.2 µM, the GI50 [27] was over 100 µM and the TGI [27] was over 100 µM. The GI50 [28] was 4.86 µM, the TGI [28] was over 100 µM and the GI50 [29] was 46 µM. The TGI [29] was over 100 µM, the GI50 [30] was 44.8 µM and the TGI [30] was over 100 µM. For the same molecule, the GI50 [31] was 61.5 µM, the TGI [31] was over 100 µM and the GI50 [32] was 26.7 µM. It also gave a TGI [32] of over 100 µM, a GI50 [33] of over 100 µM and a TGI [33] of over 100 µM. For the same molecule, the GI50 [34] was 54.1 µM, the TGI [34] was over 100 µM and the GI50 [35] was over 100 µM. For the same molecule, the TGI [35] was over 100 µM, the GI50 [36] was 58.4 µM and the TGI [36] was over 100 µM. The GI50 [37] was 73 µM, the TGI [37] was over 100 µM and the GI50 [38] was 50.7 µM. It also gave a TGI [38] of over 100 µM, a GI50 [39] of 27.5 µM and a TGI [39] of over 100 µM. It also gave a GI50 [40] of 75.5 µM, a TGI [40] of over 100 µM and a GI50 [41] of over 100 µM. It also gave a TGI [41] of over 100 µM, a GI50 [42] of 39.8 µM and a TGI [42] of over 100 µM. It also gave a GI50 [43] of 4.38 µM, a TGI [43] of over 100 µM and a GI50 [44] of 18.8 µM. It also gave a TGI [44] of 65.2 µM, a GI50 [45] of 58.6 µM and a TGI [45] of over 100 µM. It also gave a GI50 [46] of 63 µM, a TGI [46] of over 100 µM and a GI50 [47] of 65.2 µM. For the same molecule, the TGI [47] was over 100 µM, the GI50 [48] was 60 µM and the TGI [48] was over 100 µM. The GI50 [49] was 51.3 µM, the TGI [49] was over 100 µM and the GI50 [50] was 34.6 µM. It also gave a TGI [50] of over 100 µM, a GI50 [51] of 10.1 µM and a TGI [51] of over 100 µM. It also gave a GI50 [52] of 51.4 µM, a TGI [52] of over 100 µM and a GI50 [53] of 25.5 µM. For the same molecule, the TGI [53] was over 100 µM, the GI50 [54] was 10.8 µM and the TGI [54] was over 100 µM. For the same molecule, the GI50 [55] was 52.2 µM, the TGI [55] was over 100 µM and the GI50 [56] was 52.4 µM. The TGI [56] was over 100 µM, the GI50 [57] was 18.5 µM and the TGI [57] was over 100 µM. For the same molecule, the GI50 [58] was 20.3 µM and the TGI [58] was 69.5 µM.

Molecule O=C(N[C@H](c1ccc(Cl)c(Cl)c1)C1CNC1)c1ccc2cnccc2c1 has a GI50 [1] of 2.29 µM, a TGI [1] of 13.5 µM and a GI50 [2] of 6.11 µM. For the same molecule, the TGI [2] was 18.9 µM, the GI50 [3] was 5.5 µM and the TGI [3] was 18.6 µM. For the same molecule, the GI50 [4] was 2.11 µM, the TGI [4] was 10.8 µM and the GI50 [5] was 3.36 µM. For the same molecule, the TGI [5] was 15 µM, the GI50 [6] was 4.18 µM and the TGI [6] was 16.7 µM. The GI50 [7] was 1.93 µM, the TGI [7] was 10.6 µM and the GI50 [8] was 15.6 µM. The TGI [8] was 30.2 µM, the GI50 [9] was 2.64 µM and the TGI [9] was 12 µM. It also gave a GI50 [10] of 3.24 µM, a TGI [10] of 14.4 µM and a GI50 [11] of 11.1 µM. The TGI [11] was 23.2 µM, the GI50 [12] was 3.06 µM and the TGI [12] was 14.6 µM. The GI50 [13] was 5.83 µM, the TGI [13] was 19.6 µM and the GI50 [14] was 1.78 µM. For the same molecule, the TGI [14] was 11.5 µM, the GI50 [15] was 3.42 µM and the TGI [15] was 13.9 µM. For the same molecule, the GI50 [16] was 1 µM, the TGI [16] was 4.71 µM and the GI50 [17] was 0.68 µM. The TGI [17] was 3.74 µM, the GI50 [18] was 8.9 µM and the TGI [18] was 21.5 µM. It also gave a GI50 [19] of 4.34 µM, a TGI [19] of 16.7 µM and a GI50 [20] of 5.18 µM. The TGI [20] was 18.6 µM, the GI50 [21] was 3.25 µM and the TGI [21] was 13.9 µM. For the same molecule, the GI50 [22] was 3.37 µM, the TGI [22] was 14 µM and the GI50 [24] was 1.84 µM. For the same molecule, the TGI [24] was 10.7 µM, the GI50 [25] was 2.06 µM and the TGI [25] was 6.06 µM. The GI50 [26] was 1.78 µM, the TGI [26] was 10.5 µM and the GI50 [27] was 4.3 µM. For the same molecule, the TGI [27] was 19.7 µM, the GI50 [28] was 2.68 µM and the TGI [28] was 15.4 µM. For the same molecule, the GI50 [29] was 10.2 µM, the TGI [29] was 22.4 µM and the GI50 [30] was 1.71 µM. The TGI [30] was 11.3 µM, the GI50 [31] was 8.52 µM and the TGI [31] was 21 µM. For the same molecule, the GI50 [32] was 3.23 µM, the TGI [32] was 13.2 µM and the GI50 [33] was 2.76 µM. It also gave a TGI [33] of 15.7 µM, a GI50 [34] of 2.83 µM and a TGI [34] of 12.8 µM. For the same molecule, the GI50 [35] was 2.34 µM, the TGI [35] was 11.9 µM and the GI50 [36] was 5.02 µM. For the same molecule, the TGI [36] was 18.3 µM, the GI50 [37] was 10.4 µM and the TGI [37] was 23 µM. For the same molecule, the GI50 [38] was 0.966 µM, the TGI [38] was 5.91 µM and the GI50 [39] was 4.62 µM. The TGI [39] was 17.8 µM, the GI50 [40] was 5.39 µM and the TGI [40] was 19.1 µM. The GI50 [41] was 2.94 µM, the TGI [41] was 16.7 µM and the GI50 [42] was 2.56 µM. It also gave a TGI [42] of 15.6 µM, a GI50 [43] of 1.41 µM and a TGI [43] of 5.67 µM. It also gave a GI50 [44] of 0.405 µM, a TGI [44] of 3.68 µM and a GI50 [45] of 5.68 µM. The TGI [45] was 19.4 µM, the GI50 [46] was 3.15 µM and the TGI [46] was 16.4 µM. For the same molecule, the GI50 [47] was 2.84 µM, the TGI [47] was 11.8 µM and the GI50 [48] was 1.73 µM. The TGI [48] was 10.7 µM, the GI50 [49] was 3.9 µM and the TGI [49] was 14.1 µM. The GI50 [50] was 2.96 µM, the TGI [50] was 11.5 µM and the GI50 [51] was 2.74 µM. For the same molecule, the TGI [51] was 13.6 µM, the GI50 [52] was 3.48 µM and the TGI [52] was 16.1 µM. It also gave a GI50 [53] of 2.57 µM, a TGI [53] of 15.2 µM and a GI50 [54] of 12.9 µM. For the same molecule, the TGI [54] was 26.5 µM, the GI50 [55] was 3.29 µM and the TGI [55] was 16.5 µM. The GI50 [56] was 11.5 µM, the TGI [56] was 23.9 µM and the GI50 [57] was 3.04 µM. It also gave a TGI [57] of 14.5 µM, a GI50 [58] of 3.26 µM and a TGI [58] of 13.1 µM.

From PubChem BioAssay (NCI)
